Data: patent publication US20110293746A1, “Modulation of Gsk-3Beta and Method of Treating Proliferative Disorders” (Agency For Science, Technology and Research, priority 2004, published 2011)
Entries after “also recorded” stand apart in the source; their conditions may differ.

Legend:
Type in all cases: cell-based, Human
[1] = system: HCT116 cells; assay: FACS analysis of DNA content (sub-G1 apoptotic fraction)
Experimental: (§1) Cell culture and drug treatments: Human colon cancer cell line HCT116 and its derived isogenic p53^−/−, Puma^−/−, Bax^−/− and p53-inducible DLD cell lines were kindly provided by Dr. Bert Vogelstein (Johns Hopkins University, MD). RKO and RKO/E6 cells were from ATCC. Cells were cultured in DMEM containing 10% FBS. All culture reagents and media were from Invitrogen. 5-Fluorouracil, Adriamycin, etoposide and lithium chloride were purchased from Sigma. GSK-3β specific small molecule inhibitor LY2119301 was a gift from Eli Lilly (Indianapolis) and SB-216763, SB-415283 were obtained from BIOMOL.
(§2) FACS analysis of DNA content and caspase-3 activity: Cells were harvested and fixed in 70% ethanol. Fixed cells were stained with propidium iodide (50 μg/ml) after treatment with RNase (100 μg/ml). The stained cells were analyzed for DNA content by fluorescence-activated cell sorting (FACS) in a FACScalibur™ (Becton Dickinson Instrument, San Jose, Calif.). Cell cycle fractions were quantified using the CellQues™ software (Becton Dickinson). To measure caspase-3 activity, cells were fixed with Cytofix/Cytoperm™ solution (BD PharMingen) as instructed, and then stained with FITC-conjugated rabbit anti-active caspase-3 monoclonal antibody (BD PharMingen). Quantification of cells positive for the caspase-3 detection was performed by flow cytometry.

[2] = system: HCT116 p53 −/− cells; assay: as above
Experimental: as §1, §2

[3] = system: HCT116 cells expressing p53 shRNA; assay: FACS apoptosis in HCT116 cells expressing p53 shRNA; conditions: LY2119301 and ADR (1 μM) or 5-FU (100 μM), 24 h, p53 knockdown
Experimental: as §2
RNA interference: To generate knockdown vectors for p53, the following 19-nucleotide sequence was used: […] [SEQ ID NO: 1]. The oligonucleotide pair was cloned into the retroviral expression vector pSIREN-RetroQ™ (BD Bioscienses) according to the manufacturer's instructions. Briefly, 293 cells were transfected with the p53 shRNA construct for 48 h to produce viral particles. To establish p53 shRNA stable transfection clones, HCT116 cells were infected with retroviral stocks in the presence of 5 μg/ml polybrene. Infected cells were subject to puromycin selection at 2 μg/ml. […]

[4] = system: RKO cells; assay: FACS apoptosis (sub-G1); conditions: p53 wild-type, with ADR
Experimental: as §1, §2

[5] = system: RKO/E6 cells; assay: FACS apoptosis (sub-G1); conditions: p53-inactive, with ADR
Experimental: as §1, §2

[6] = system: HT29; assay: Apoptosis in p53 mutant colon cancer cell line; conditions: data not shown
Experimental: as §2

[7] = system: SW480; assay: Apoptosis in p53 mutant colon cancer cell line; conditions: data not shown
Experimental: as §2

[8] = system: p53 and p53 targets in HCT116 cells; assay: Immunoblot analyses of p53 and p53 targets
Experimental: (§3) Western blotting, immunoprecipitation and microarray analysis: Cells were scraped, collected and lysed as described previously (Yu, Q., et al. Cancer Res, 62: 5743-5748, 2002). Briefly, cells were lysed with cell lysis buffer (0.3% NP40, 1 mM EDTA, 50 mM Tris-HCl (pH 7.4), 2 mM EGTA, 1% Triton X-100, […], 25 mM NaF, 1 mM Na3VO4, 2 mM AEBSF, 5 μg/ml aprotinin, 1 μg/ml leupeptin) for 30 minutes on ice, and the lysates were clarified by centrifugation at 12,000×g for 15 minutes at 4° C. Protein concentration was quantified (Bio-Rad, Hercules, Calif.) and protein samples (50 μg) were separated by SDS/PAGE and transferred onto Immobilon™ membranes (Millipore, Bedford, Mass.). Antibodies against the following proteins were used: p53 (DO-1), p21, PARP, GSK-α/β, α-Tubulin, and β-actin (Santa Cruz Biotechnology), Puma (Ab-1, Oncogene), Bax (Sigma), phosphor-(Ser9/21)-GSK-3α/β and Caspase-9 (Cell Signaling Technologies), phosphor-(Tyr216/279)-GSK-3α/β (Upstate Biotechnologies), cytochrome c (BD PharMingen). To detect Bax conformational change, cells were lysed in 1% Chaps buffer and the soluble fraction was immunoprecipitated with anti-Bax monoclonal antibody (6A7, BD, PharMingen), followed by immunoblotting with anti-Bax polyclonal antibody. Microarray analysis was performed as described (Kho, P. S., et al. J Biol Chem, 279: 21183-21192, 2004).

[9] = system: HCT116 cells infected with Ad-p53; assay: Apoptosis and immunoblot in cells infected with adenovirus expressing p53
Experimental: as §3, §2
Adenoviral infections: Adenovirus Ad-LacZ and Ad-p53 were obtained from Dr. Shibin Zhou (Johns Hopkins University, Md.). Cells were grown to 50% confluence and infected with recombinant adenovirus as described (Yu, J., et al. Proc Natl Acad Sci USA, 96: 14517-14522, 1999). Twenty-four hours after the infection, cells were treated with drugs for the indicated times.

[10] = system: Bax; assay: Bax conformational activation (IP with 6A7 antibody, Western blot) in HCT116 p53 −/− cells; conditions: same conditions
Experimental: as §3

[11] = system: HCT116 cells; assay: Western blots of cytosolic fractions: cytochrome c release and caspase-9 processing; conditions: after DNA damage (ADR or etoposide) in presence of LY2119301
Experimental: as §3, with “2004). […]” for “2004).”

[12] = with ADR, etoposide or 5-FU, HCT116 (LY2119301 also RKO)

With `CN1CCN(c2ccc(NCCNc3ccc([N+](=O)[O-])c(N)n3)nc2-c2ccc(Cl)cc2Cl)C(=O)C1` [LY2119301] the 5-FU-induced apoptosis ([1]; 5-FU in presence of LY2119301) was “greatly sensitized”, the “apoptosis in response to other DNA damaging agents” value ([1]; LY2119301 with etoposide (10 μM) or camptothecin (100 nM), 24 h) was “triggered p53-dependent apoptosis; also recorded: robust apoptosis” and the “cell death, sub-G1 population” value ([1]; co-treatment ADR (1 μM) and LY2119301 (5 μM), 24 h) was about 59%. The “increase in apoptosis induction by 5-FU” value ([1]; dose-effect experiments, 5-FU in presence of LY2119301) was 10 fold, the “concentration able to induce apoptosis in ADR-treated cells (as low as)” value ([1]; with ADR) was 250 nM and the 5-FU-induced apoptosis ([2]; 5-FU in presence of LY2119301, cells null for p53) was “no increased apoptosis”. For the same compound, the “synergistic induction of cell death” value ([2]; ADR and LY2119301 co-treatment, 24 h, p53 knockout) was “not seen”, the “apoptosis induction by co-treatment vs control vector cells” value [3] was “significantly reduced” and the “apoptotic effect on the p53 response” value [4] was “observed”. For the same compound, the “apoptotic effect on the p53 response” value [5] was “not”, the apoptosis induction [6] was “not induced” and the apoptosis induction [7] was “not induced”. The Bax levels ([8]; HCT116 and RKO) was “no effect”, the “cleavage of PARP” value ([8]; cells treated with genotoxic agents) was “remarkably increased” and the “p53-mediated p21 induction” value [8, 12] was “prevents; also recorded: impaired”. The “p53 accumulation / stability in response to DNA damage” value [8, 12] was “prevents; also recorded: markedly and consistently impaired”, the “induction of Puma” value ([8]; with chemotherapeutic agents, HCT116 and RKO) was “impaired” and the Bax activation ([9]; IP-Western, p53 over-expression plus LY2119301) was “similarly seen”. For the same compound, the “apoptosis induced by enforced p53 expression” value ([9]; LY2119301 24 h) was “significantly increased”, the “ectopically expressed p53 protein levels” value ([9]; immunoblot) was “no effect” and the “p53 dependent transcription of p21” value ([9]; immunoblot) was “no effect”. The Bax conformation [10] was “no detectable change”, the “caspase 9 processing” value [11] was “evident” and the cytochrome c release [11] was “increased”.
